Values quoted from earlier work, collected in patent US20050058718A1, “Preparations for cigarette toxicity reduction, health enhancement, and addiction elimination” (priority 2003, published 2005).

Key:
cancer cells = cancer cells external of the human body treated by selenium
[1] = system: leukoderma in their mouths and throats; details: 3 ppm selenium in drinking water
[2] = 1300 people, 200 ug selenium daily for five years

For `[Se]` [selenium], the “reduction of large intestine and rectum cancer incidence” value (cancer incidence; [2]) is given as 58%, the “reduction of lung cancer incidence” value (cancer incidence; [2]) is given as 46% and the “reduction of prostate cancer incidence” value (cancer incidence; [2]) is given as 63%. For the same molecule, the “more chance to survive when sick from cancer” value (cancer incidence; selenium takers sick from cancer) was 50%, the “decrease of carcinogenicity of cancer cells” value (cancer cells) was 60% and the “delay of cancer formation versus control group” value [1] was “two more weeks”.
